Laboratory results reported in ChEMBL document CHEMBL1201862, “PubChem BioAssay data set” (2004).
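Cells were grown in 96-well plates and exposed to each compound for 48 hours at five concentrations; endpoints were interpolated linearly between bracketing concentrations, or set to the highest concentration if not reached. Abbreviation: GI50, concentration required for 50% inhibition of growth.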 Activity calls are given as the source filed them. Rule as the data show it: active = GI50 up to about 1.1 µM and inactive = higher.

How the values were obtained:
Test in all cases: inhibition of tumour cell growth, NCI panel, 48 h
ACHN = tested on: ACHN
NCI-H460 = tested on: NCI-H460
HCT-116 = tested on: HCT-116
CCRF-CEM = tested on: CCRF-CEM
BT-549 = tested on: BT-549
SN12C = tested on: SN12C
HOP-92 = tested on: HOP-92
RPMI-8226 = tested on: RPMI-8226
UO-31 = tested on: UO-31
TK-10 = tested on: TK-10
UACC-257 = tested on: UACC-257
Malme-3M = tested on: Malme-3M
MCF7 = tested on: MCF7
U-251 = tested on: U-251
T47D = tested on: T47D
SK-MEL-5 = tested on: SK-MEL-5
SK-MEL-2 = tested on: SK-MEL-2
OVCAR-4 = tested on: OVCAR-4
Hs-578T = tested on: Hs-578T
HL-60 = tested on: HL-60

| Structure (SMILES) | GI50 (ACHN) | GI50 (NCI-H460) | GI50 (HCT-116) | GI50 (CCRF-CEM) | GI50 (BT-549) | GI50 (SN12C) | GI50 (HOP-92) | GI50 (RPMI-8226) | GI50 (UO-31) | GI50 (TK-10) | GI50 (UACC-257) | GI50 (Malme-3M) | GI50 (MCF7) | GI50 (U-251) | GI50 (T47D) | GI50 (SK-MEL-5) | GI50 (SK-MEL-2) | GI50 (OVCAR-4) | GI50 (Hs-578T) | GI50 (HL-60) |
| --- | --- | --- | --- | --- | --- | --- | --- | --- | --- | --- | --- | --- | --- | --- | --- | --- | --- | --- | --- | --- |
| O=C(O)CC1(CC(=O)O)Nc2ccccc2SC1=O | > 100 µM (inactive) | > 100 µM (inactive) | > 100 µM (inactive) | > 100 µM (inactive) | > 100 µM (inactive) | > 100 µM (inactive) | > 100 µM (inactive) | > 100 µM (inactive) | > 100 µM (inactive) | > 100 µM (inactive) | > 100 µM (inactive) | > 100 µM (inactive) | > 100 µM (inactive) | > 100 µM (inactive) | > 100 µM (inactive) | > 100 µM (inactive) | > 100 µM (inactive) | > 100 µM (inactive) | > 100 µM (inactive) | – |
| Cc1cc(N)c2cc(NC(=O)Nc3ccc4nc(C)cc(N)c4c3)ccc2n1 | > 100 µM (inactive) | 32.4 µM (inactive) | > 100 µM (inactive) | > 100 µM (inactive) | > 100 µM (inactive) | > 100 µM (inactive) | > 100 µM (inactive) | > 100 µM (inactive) | > 100 µM (inactive) | > 100 µM (inactive) | > 100 µM (inactive) | > 100 µM (inactive) | > 100 µM (inactive) | 70.6 µM (inactive) | > 100 µM (inactive) | 70.1 µM (inactive) | > 100 µM (inactive) | > 100 µM (inactive) | > 100 µM (inactive) | – |
| CCOC(=O)NC(NC1=NCCS1)(C(=O)OCC)C(F)(F)F (configuration not stated) | > 100 µM (inactive) | > 100 µM (inactive) | > 100 µM (inactive) | > 100 µM (inactive) | – | > 100 µM (inactive) | > 100 µM (inactive) | > 100 µM (inactive) | > 100 µM (inactive) | > 100 µM (inactive) | > 100 µM (inactive) | > 100 µM (inactive) | > 100 µM (inactive) | > 100 µM (inactive) | > 100 µM (inactive) | > 100 µM (inactive) | > 100 µM (inactive) | > 100 µM (inactive) | > 100 µM (inactive) | > 100 µM (inactive) |
| CN1c2ccccc2C2=C(c3ccccc3)CC[C@@H](C(=O)N3C4CC5CC[C@@]4(CS3(=O)=O)C5(C)C)[C@@H]21 (some centres not stated) | > 100 µM (inactive) | > 100 µM (inactive) | 34.2 µM (inactive) | > 100 µM (inactive) | > 100 µM (inactive) | > 100 µM (inactive) | > 100 µM (inactive) | > 100 µM (inactive) | > 100 µM (inactive) | > 100 µM (inactive) | > 100 µM (inactive) | > 100 µM (inactive) | > 100 µM (inactive) | > 100 µM (inactive) | > 100 µM (inactive) | > 100 µM (inactive) | – | > 100 µM (inactive) | > 100 µM (inactive) | – |
| Cc1ccc(C)c(/C(=N\N=C(N)N)C2CC2)c1 | 42.7 µM (inactive) | 18.1 µM (inactive) | 26.4 µM (inactive) | – | 25.5 µM (inactive) | 56 µM (inactive) | 47.2 µM (inactive) | 28.8 µM (inactive) | 59.8 µM (inactive) | 34 µM (inactive) | 31.6 µM (inactive) | 41.5 µM (inactive) | 47.8 µM (inactive) | 17.4 µM (inactive) | 45.5 µM (inactive) | 36.2 µM (inactive) | 50.8 µM (inactive) | > 100 µM (inactive) | 26.1 µM (inactive) | – |
| NC1Cc2ccccc2OC1=O (configuration not stated) | > 100 µM (inactive) | > 100 µM (inactive) | – | – | > 100 µM (inactive) | > 100 µM (inactive) | – | > 100 µM (inactive) | > 100 µM (inactive) | > 100 µM (inactive) | > 100 µM (inactive) | > 100 µM (inactive) | > 100 µM (inactive) | > 100 µM (inactive) | > 100 µM (inactive) | > 100 µM (inactive) | > 100 µM (inactive) | – | > 100 µM (inactive) | – |
| Cc1nn(C(=O)Cc2ccccc2)c2c1C(c1ccc([N+](=O)[O-])cc1)SC(=N)N2 (configuration not stated) | > 100 µM (inactive) | > 100 µM (inactive) | > 100 µM (inactive) | > 100 µM (inactive) | > 100 µM (inactive) | > 100 µM (inactive) | – | > 100 µM (inactive) | – | > 100 µM (inactive) | > 100 µM (inactive) | > 100 µM (inactive) | > 100 µM (inactive) | – | > 100 µM (inactive) | > 100 µM (inactive) | – | – | > 100 µM (inactive) | > 100 µM (inactive) |
| COC(=O)c1ccccc1CC1Cc2cc3c(cc2C1)CCC3 | 36.6 µM (inactive) | 48.2 µM (inactive) | 22.1 µM (inactive) | 20.4 µM (inactive) | – | 40.2 µM (inactive) | 26.9 µM (inactive) | 17.3 µM (inactive) | 39.4 µM (inactive) | > 100 µM (inactive) | 31.2 µM (inactive) | 21.3 µM (inactive) | 45.9 µM (inactive) | 36.5 µM (inactive) | 50.9 µM (inactive) | 25.8 µM (inactive) | 19.4 µM (inactive) | 39.5 µM (inactive) | 45.8 µM (inactive) | 9.75 µM (inactive) |
| c1ccc(CN2CCC3(CC2)SSC2(CCN(Cc4ccccc4)CC2)S3)cc1 | > 100 µM (inactive) | 25.6 µM (inactive) | 50.8 µM (inactive) | 65.9 µM (inactive) | > 100 µM (inactive) | 87.1 µM (inactive) | > 100 µM (inactive) | 20.1 µM (inactive) | > 100 µM (inactive) | 64.4 µM (inactive) | 26.7 µM (inactive) | 53.7 µM (inactive) | – | > 100 µM (inactive) | – | – | 76.7 µM (inactive) | 52.4 µM (inactive) | 17.7 µM (inactive) | 78 µM (inactive) |
| COC(=O)C1=C(C)N2[C@H](C(=O)O)CS[C@@]2(C)[C@H](C(=O)OC)[C@H]1c1cccc([N+](=O)[O-])c1 | > 100 µM (inactive) | > 100 µM (inactive) | > 100 µM (inactive) | > 100 µM (inactive) | > 100 µM (inactive) | > 100 µM (inactive) | 54.5 µM (inactive) | > 100 µM (inactive) | > 100 µM (inactive) | > 100 µM (inactive) | > 100 µM (inactive) | > 100 µM (inactive) | > 100 µM (inactive) | > 100 µM (inactive) | > 100 µM (inactive) | > 100 µM (inactive) | > 100 µM (inactive) | > 100 µM (inactive) | > 100 µM (inactive) | – |
| O=C(/C=C/c1ccc(C(F)(F)F)cc1)c1c([O-])on[n+]1-c1ccccc1 | 1.51 µM (inactive) | 2.29 µM (inactive) | 1.75 µM (inactive) | 0.108 µM (active) | 1.59 µM (inactive) | 2.23 µM (inactive) | 1.6 µM (inactive) | 0.261 µM (active) | 1.91 µM (inactive) | 1.65 µM (inactive) | 2.12 µM (inactive) | > 100 µM (inactive) | 1.15 µM (inactive) | 1.83 µM (inactive) | 1.8 µM (inactive) | 2.8 µM (inactive) | 2.81 µM (inactive) | 5.33 µM (inactive) | – | 0.173 µM (active) |
| C[C@]12CC[C@H](O)CC1=CC[C@@H]1[C@@H]2CC[C@]2(C)C(=O)[C@@H](N3CCOCC3)C[C@@H]12 | > 100 µM (inactive) | > 100 µM (inactive) | > 100 µM (inactive) | 99.8 µM (inactive) | – | > 100 µM (inactive) | 50.5 µM (inactive) | 48.4 µM (inactive) | > 100 µM (inactive) | > 100 µM (inactive) | > 100 µM (inactive) | > 100 µM (inactive) | > 100 µM (inactive) | 89.3 µM (inactive) | 31 µM (inactive) | 33.1 µM (inactive) | > 100 µM (inactive) | > 100 µM (inactive) | 90.4 µM (inactive) | 47.1 µM (inactive) |
| O=C1C(=C/C=C2/SC(c3ccccc3)(c3ccccc3)c3ccccc32)C(=O)c2ccccc21 | > 100 µM (inactive) | > 100 µM (inactive) | > 100 µM (inactive) | – | > 100 µM (inactive) | > 100 µM (inactive) | > 100 µM (inactive) | > 100 µM (inactive) | > 100 µM (inactive) | > 100 µM (inactive) | > 100 µM (inactive) | > 100 µM (inactive) | > 100 µM (inactive) | > 100 µM (inactive) | – | > 100 µM (inactive) | – | > 100 µM (inactive) | > 100 µM (inactive) | – |
| NS(=O)(=O)c1nnc(NS(=O)(=O)c2cccc3cccnc23)s1 | > 100 µM (inactive) | > 100 µM (inactive) | > 100 µM (inactive) | > 100 µM (inactive) | > 100 µM (inactive) | > 100 µM (inactive) | > 100 µM (inactive) | > 100 µM (inactive) | > 100 µM (inactive) | > 100 µM (inactive) | > 100 µM (inactive) | – | > 100 µM (inactive) | > 100 µM (inactive) | > 100 µM (inactive) | > 100 µM (inactive) | > 100 µM (inactive) | > 100 µM (inactive) | > 100 µM (inactive) | – |
| O=[N+]([O-])c1ccc(/N=N/c2c(O)ccc3cc(S(=O)(=O)O)ccc23)cc1 | > 100 µM (inactive) | – | > 100 µM (inactive) | > 100 µM (inactive) | > 100 µM (inactive) | > 100 µM (inactive) | > 100 µM (inactive) | > 100 µM (inactive) | > 100 µM (inactive) | > 100 µM (inactive) | > 100 µM (inactive) | > 100 µM (inactive) | – | > 100 µM (inactive) | > 100 µM (inactive) | > 100 µM (inactive) | > 100 µM (inactive) | > 100 µM (inactive) | > 100 µM (inactive) | – |
